US7691806B2, “Repeat sequence protein polymer active agent congjugates, methods and uses” (priority 2003, dated 2010)

Columns and labels:
Bacillus subtilis 168 = experiment: Test-tube based antimicrobial assay of purified AMP-SELP fusions; format: cell-based; conditions: 1.25 mg/ml in water, equal volume of 1:500 diluted culture, 37° C., after 4 hours
Protocol: (§1) Culture supernatant samples from post-induction time-points from a fermentation of Cecropin A-Melettin (CAM) fused to the N-terminus of SELP47K were tested for growth inhibition of E. coli and B. subtilis. […] Purified CAM-SELP47K (SEQ. ID. NO.32) and MBI-SELP47K (SEQ. ID. NO. 33) biomaterials were similarly tested for their antimicrobial activity. Lyophilized material was dissolved in water at 1.25 mg/ml and used in a test-tube based assay performed as follows: Bacillus subtilis 168 and Escherichia coli MG1655 were each grown from single colonies in 5 ml volumes of LB in test tubes, 37° C., 250 rpm, 16 hrs. Cultures were diluted 1:500 in Terrific broth. Equal volumes of diluted culture and purified AMP-SELP fusions described above were combined in sterile glass test-tubes (1 ml total volume in 5 ml tubes), in duplicate, and incubated at 37° C., 250 rpm. Purified SELP47K was used as a negative control.

Escherichia coli MG1655 = experiment: as above; format: cell-based; conditions: 1.25 mg/ml in water, equal volume of 1:500 diluted culture, 37° C., after 4 hours
Protocol: as §1

## SELP47K: genetically engineered silk-elastin polymer, head-[(GAGAGS)2(GVGVP)3GKGVP(GVGP)4(GAGAGS)2]13-tail (SEQ ID NO. 19), 886 amino acids
Bacillus subtilis 168
  growth in tubes: growth was clearly visible
Escherichia coli MG1655
  growth in tubes: growth was clearly visible
